One molecule from EPA's ToxValDB 9.5 (doi:10.2903/j.efsa.2015.4001) can be followed below.

In one series the test system is Apis mellifera. The note with it: acute, duration: 48 hours, mortality.
For the next series, the system named is Mus musculus. The following applies: organ weight.
A further series concerns Colinus virginianus. The note with it: acute; oral.
The next series has as its system Anas platyrhynchos. The following applies: reproductive.
The next series deals with Oryctolagus sp. The note with it: developmental; development.

As usually defined, the NOAEL is the highest tested level that showed no adverse finding. In the case of `CCOC(=O)COc1cc(-c2nn(C)c(OC(F)F)c2Cl)c(F)cc1Cl` [Pyraflufen-ethyl], the LD50 is above 100 µg/piece in the series on Apis mellifera (dermal); above 112 µg/piece in the series with Apis mellifera (oral, unspecified); above 2000 mg/kg-day in the series on Colinus virginianus; above 5000 mg/kg-day in the series on Rattus norvegicus (acute, oral, mortality). In addition, the no-observed-adverse-effect level (NOAEL) in the series with Mus musculus (chronic, duration: 18 months) was determined as 20 mg/kg-day; with Mus musculus (subchronic, duration: 90 days, oral) it was 20 mg/kg-day; in the series on Anas platyrhynchos it was 50 mg/kg-day; in the series with Oryctolagus sp. it was 20 mg/kg-day; in the series on Rattus norvegicus (chronic, duration: 2 years, organ weight) it was 20 mg/kg-day; in the series with Rattus norvegicus (reproduction developmental), 20 mg/kg-day. The same molecule came in with an LC50 in the series with Tagia sp. (acute, duration: 14 days, mortality) above 500 mg/kg. In the series on Tagia sp. (chronic/long-term), the NOEC is at least 250 mg/kg.
